Read-outs that look alike come from different tables or passages of the source. Where only a bound is given, the exact number is not on record here.

For one experiment, the system named is exosomes (Ex). Briefly: Fluorescence enhancement of BK derived peptides with exosomes from rat blood plasma. The class given is binding. The settings on record: Ex treated peptide vs untreated. The text has this:
In support of the observations with synthetic vesicles to translate to naturally-occurring extracellular vesicles, exosomes (Ex) purified from blood plasma of rats underwent inescapable tailshock stress as an acceptable model of exosome release. Ex have diameters of 40-100 nm, therefore providing a good biological model for testing the curvature-sensing peptides. […] The total number of Ex in the sample was counted by nanoparticle tracking analysis to ensure that is in the same order of magnitude as the 500 μM lipids in the synthetic models.

For the next experiment, the target named is lipid vesicles. Kind of experiment: Fluorescence anisotropy titration of BK derived peptides with lipid vesicles. The class given is binding. The following applies: read-out: Dissociation constant (Kd). On the procedure: In another method, synthetic lipid vesicles of various sizes were prepared to model different membrane curvatures for testing interactions. Three compositions of vesicles were designed to closely resemble natural biological membranes named lipid model (LM) 1, 2, and 3. These vesicles were prepared by extrusion under inert, pressure-controlled method through polycarbonate membranes with pore sizes of 400, 80, and 30 nm to cover a wide range of curvatures. Since curvature is defined as the inverse of radius, the smallest size represents vesicles with the highest curvature. […] These vesicles were further characterized by transmission electron microscopy (TEM) to verify the sizes found by DLS.
In other exemplary methods, binding strength of the interactions were assessed. Fluorescence anisotropy (FA) assay was adopted to measure the binding constants. The peptide partitions between the hydrophobic lipid bilayer and the aqueous solvent and the dissociation constant (Kd) calculated as the reciprocal of the molar partition coefficient. A constant concentration of peptide was titrated with increasing concentration of lipid vesicles and the FA due to the change in the rotational time of the small peptide when it binds to the relatively bigger lipid vesicles was measured and plotted versus the total lipid concentration. […] Fluorescence anisotropy titration was performed to obtain the Kd values. Lower values indicate stronger binding. LM=liposome model. [Peptide]=1 μM; [Lipid titrant]=2 mM.

For “monomeric Bradykinin derivative: GRPPGFSPFR with ε-azidolysine and NBD-X fluorophore at the N-terminus [Peptide 1]”, in the experiment on exosomes (Ex), the fluorescence intensity was 3.09±0.08 RFU. The Kd at lipid vesicles (LM 1 V58) was 996 ± 230 µM; at lipid vesicles (LM 1 V116), 940 ± 160 µM; at lipid vesicles (LM 1 V454), 7.14 µM; at lipid vesicles (LM 2 V116), 585 ± 62 µM; on lipid vesicles (LM 2 V454) it was greater than 1000 µM; at lipid vesicles (LM 2 V), 488 ± 72 µM. Further, the figures for the Kd at lipid vesicles (LM 3 V58), at lipid vesicles (LM 3 V116) and on lipid vesicles (LM 3 V454) were 407 ± 56 µM, 893 ± 101 µM and 902 ± 141 µM, respectively.

What is called Kd is the concentration at which binding is half-saturated.

The record behind these values is patent US20150093333A1, “COMPOSITIONS, METHODS AND USES FOR PEPTIDES IN DIAGNOSIS, PROGRESSION AND TREATMENT OF CANCERS” (THE REGENTS OF THE UNIVERSITY OF COLORADO, body corporate, priority 2003, published 2015).
